Measurements reported in US11555032B2, “Isoxazole derivatives as FXR agonists and methods of use thereof” (Enanta Pharmaceuticals, Inc., priority 2019, dated 2023).

Target: T1, human FXR (NR1H4) (Homo sapiens, UniProt Q96RI1)
T1 construct: host or cells: CHO (Chinese hamster ovary) reporter cells
T1 sequence (Q96RI1 1-486): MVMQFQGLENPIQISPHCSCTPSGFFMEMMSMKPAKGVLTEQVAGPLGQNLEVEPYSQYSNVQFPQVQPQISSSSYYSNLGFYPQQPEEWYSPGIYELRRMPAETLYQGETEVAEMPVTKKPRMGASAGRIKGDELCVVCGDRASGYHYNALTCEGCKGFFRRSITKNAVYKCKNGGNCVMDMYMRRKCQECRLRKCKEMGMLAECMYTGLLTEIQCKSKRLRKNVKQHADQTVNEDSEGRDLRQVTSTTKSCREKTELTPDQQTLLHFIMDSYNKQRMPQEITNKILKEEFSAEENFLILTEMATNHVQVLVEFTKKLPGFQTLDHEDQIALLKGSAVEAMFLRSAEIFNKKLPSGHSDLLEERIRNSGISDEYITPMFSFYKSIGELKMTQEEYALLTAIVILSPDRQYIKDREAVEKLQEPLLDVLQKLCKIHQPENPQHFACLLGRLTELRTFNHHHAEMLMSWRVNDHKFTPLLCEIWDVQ
Assay: Human FXR (NRIH4) Assay, luciferase reporter
Assay type: cell-based
Settings: CHO reporter cells expressing human NR1H4, luciferase, 22 hours incubation
Text: Determination of a ligand mediated Gal4 promoter driven transactivation to quantify ligand binding mediated activation of FXR. FXR Reporter Assay kit purchased from Indigo Bioscience (Catalogue number: IB00601) to determine the potency and efficacy of compound developed by Enanta that can induce FXR activation. The principle application of this reporter assay system is to quantify functional activity of human FXR. The assay utilizes non-human mammalian cells, CHO (Chinese hamster ovary) cells engineered to express human NR1H4 protein (referred to as FXR). Reporter cells also incorporate the cDNA encoding beetle luciferase which catalyzes the substrates and yields photon emission. Luminescence intensity of the reaction is quantified using a plate-reading luminometer, Envision. Reporter Cells include the luciferase reporter gene functionally linked to an FXR responsive promoter. Thus, quantifying changes in luciferase expression in the treated reporter cells provides a sensitive surrogate measure of the changes in FXR activity. EC50 and efficacy (normalize to CDCA set as 100%) is determined by XLFit. The assay is according to the manufacturer's instructions. In brief, the assay was performed in white, 96 well plates using final volume of 100 ul containing cells with different doses of compounds. Retrieve Reporter Cells from −80° C. storage. Perform a rapid thaw of the frozen cells by transferring a 10 ml volume of 37° C. cell recovery medium into the tube of frozen cells. Recap the tube of Reporter Cells and immediately place it in a 37° C. water bath for 5-10 minutes. Retrieve the tube of Reporter Cell Suspension from the water bath. Sanitize the outside surface of the tube with a 70% alcohol swab, and then transfer it into the cell culture hood. Dispense 90 μl of cell suspension into each well of the 96-well Assay Plate. Transfer the plate into 37° C. incubator, allowing the cells adherent to the bottom of the well. Dilute compounds in Dilution Plate (DP), and administrate to cells at Assay Plate (AP). DMSO content of the samples was kept at 0.2%. Cells were incubated for additional 22 hours before luciferase activities were measured. Thirty minutes before intending to quantify FXR activity, remove Detection Substrate and Detection Buffer from the refrigerator and place them in a low-light area so that they may equilibrate to room temperature. Remove the plate's lid and discard all media contents by ejecting it into an appropriate waste container. Gently tap the inverted plate onto a clean absorbent paper towel to remove residual droplets. Cells will remain tightly adhered to well bottoms. Add 100 μl of luciferase detection reagent to each well of the assay plate. Allow the assay plate to rest at room temperature for at least 5 minutes following the addition of LDR. Set the instrument (Envision) to perform a single 5 second “plate shake” prior to reading the first assay well. Read time may be 0.5 second (500 mSec) per well. EC50 and Efficacy (normalize to CDCA set as 100%) is determined by XLFit.
The efficacy was normalized to CDCA set as 100%.

Row | EC50 | Compound
1 | < 25 nM | CC(C)Oc1cc(C(=O)O)cc2sc(NC3[C@@H]4CC[C@H]3CC(OCc3c(-c5c(Cl)cccc5Cl)noc3C3CC3)C4)nc12 (stereo partly drawn) [Example 1, 2-(((1R,3r,5S,8s)-3-((5-cyclopropyl-3-(2,6-dichlorophenyl)isoxazol-4-yl)methoxy)bicyclo[3.2.1]octan-8-yl)amino)-4-isopropoxybenzo[d]thiazole-6-carboxylic acid]
2 | < 25 nM | CC(C)Oc1cc(C(=O)O)cc2sc(NC3C4CCC3CC(OCc3c(-c5c(Cl)cccc5Cl)noc3C3CC3)C4)nc12 [Example 2, 2-(((1R,3r,5S,8r)-3-((5-cyclopropyl-3-(2,6-dichlorophenyl)isoxazol-4-yl)methoxy)bicyclo[3.2.1]octan-8-yl)amino)-4-isopropoxybenzo[d]thiazole-6-carboxylic acid]
3 | < 25 nM | O=C(O)c1ccc2c(c1)CN(C1C3CCC1CC(OCc1c(-c4c(Cl)cccc4Cl)noc1C1CC1)C3)C2 (centres unmarked) [Example 2-2]
4 | < 25 nM | CC(C)Oc1cc(C(=O)O)cc2sc(NC3C4CCC3CC(OCc3c(-c5ccccc5OC(F)(F)F)noc3C3CC3)C4)nc12 [Example 3, 2-(((1R,3r,5S,8s)-3-((5-cyclopropyl-3-(2-(trifluoromethoxy)phenyl)isoxazol-4-yl)methoxy)bicyclo[3.2.1]octan-8-yl)amino)-4-isopropoxybenzo[d]thiazole-6-carboxylic acid]
5 | < 25 nM | O=C(O)c1cc(F)c2nc(NC3C4CCC3CC(OCc3c(-c5ccccc5OC(F)(F)F)noc3C3CC3)C4)sc2c1 (centres unmarked) [Example 3-2]
6 | 25 to 500 nM | O=C(O)c1ccnc(NC2C3CCC2CC(OCc2c(-c4ccccc4OC(F)(F)F)noc2C2CC2)C3)c1 (centres unmarked) [Example 3-3]
7 | < 25 nM | O=C(O)c1cccc2nc(NC3C4CCC3CC(OCc3c(-c5ccccc5OC(F)(F)F)noc3C3CC3)C4)ccc12 (centres unmarked) [Example 3-4]
8 | 25 to 500 nM | O=C(O)c1cnc(NC2C3CCC2CC(OCc2c(-c4ccccc4OC(F)(F)F)noc2C2CC2)C3)c(C(F)(F)F)c1 (centres unmarked) [Example 3-5]
9 | < 25 nM | O=C(O)c1ccc2nc(NC3C4CCC3CC(OCc3c(-c5ccccc5OC(F)(F)F)noc3C3CC3)C4)ccc2c1 (centres unmarked) [Example 3-6]
10 | < 25 nM | O=C(O)c1cccc2nc(NC3C4CCC3CC(OCc3c(-c5ccccc5OC(F)(F)F)noc3C3CC3)C4)cnc12 (centres unmarked) [Example 3-7]
11 | < 25 nM | O=C(O)c1cc2sc(NC3C4CCC3CC(OCc3c(-c5ccccc5OC(F)(F)F)noc3C3CC3)C4)nc2c(F)c1F (centres unmarked) [Example 3-9]
12 | < 25 nM | O=C(O)c1ccc2nc(NC3C4CCC3CC(OCc3c(-c5ccccc5OC(F)(F)F)noc3C3CC3)C4)ncc2c1 (centres unmarked) [Example 3-12]
13 | < 25 nM | O=C(O)c1cccc2nc(NC3C4CCC3CC(OCc3c(-c5ccccc5OC(F)(F)F)noc3C3CC3)C4)ncc12 (centres unmarked) [Example 3-13]
14 | < 25 nM | CC(C)Oc1cc(C(=O)O)cc2sc(N[C@H]3C[C@@H]4C[C@H]3C[C@@H]4OCc3c(-c4c(Cl)cccc4Cl)noc3C3CC3)nc12 [Example 4, 2-(((1S,2S,4S,5S)-5-((5-cyclopropyl-3-(2,6-dichlorophenyl)isoxazol-4-yl)methoxy)bicyclo[2.2.1]heptan-2-yl)amino)-4-isopropoxybenzo[d]thiazole-6-carboxylic acid]
15 | 25 to 500 nM | CC(C)Oc1cc(C(=O)O)cc2sc(N[C@H]3C[C@@H]4C[C@H]3C[C@@H]4OCc3c(-c4ccccc4OC(F)(F)F)noc3C3CC3)nc12 [Example 5]
16 | 25 to 500 nM | CC(C)Oc1cc(C(=O)O)cc2sc(N[C@@H]3C[C@@H]4C[C@H]3C[C@@H]4OCc3c(-c4ccccc4OC(F)(F)F)noc3C3CC3)nc12 [Example 6]
17 | < 25 nM | CC(C)Oc1cc(C(=O)O)cc2sc(N[C@@H]3C[C@H]4C[C@@H]3[C@@H](OCc3c(-c5c(Cl)cccc5Cl)noc3C3CC3)C4)nc12 [Example 7]
18 | 25 to 500 nM | NS(=O)(=O)c1ccc2nc(NC3C4CCC3CC(OCc3c(-c5ccccc5OC(F)(F)F)noc3C3CC3)C4)sc2c1 [Example 8, 2-(((1R,3r,5S,8s)-3-((5-cyclopropyl-3-(2-(trifluoromethoxy)phenyl)isoxazol-4-yl)methoxy)bicyclo[3.2.1]octan-8-yl)amino)benzo[d]thiazole-6-sulfonamide]

Row | EC50 | Compound
19 | 25 to 500 nM | NS(=O)(=O)c1ccc2nc(NC3C4CCC3CC(OCc3c(-c5ccccc5OC(F)(F)F)noc3C3CC3)C4)cnc2c1 (centres unmarked) [Example 8-2]
20 | 25 to 500 nM | NS(=O)(=O)c1ccc(NC2C3CCC2CC(OCc2c(-c4ccccc4OC(F)(F)F)noc2C2CC2)C3)nc1 (centres unmarked) [Example 8-3]
21 | 25 to 500 nM | N#Cc1ccc(NC2C3CCC2CC(OCc2c(-c4ccccc4OC(F)(F)F)noc2C2CC2)C3)nc1 [Example 8-4, 6-(((1R,3r,5S,8s)-3-((5-cyclopropyl-3-(2-(trifluoromethoxy)phenyl)isoxazol-4-yl)methoxy)bicyclo[3.2.1]octan-8-yl)amino)nicotinonitrile]
22 | 25 to 500 nM | FC(F)(F)Oc1ccccc1-c1noc(C2CC2)c1COC1CC2CCC(C1)C2Nc1ccc(-c2nnn[nH]2)cn1 [Example 8-5, N-((1R,3r,5S,8s)-3-((5-cyclopropyl-3-(2-(trifluoromethoxy)phenyl)isoxazol-4-yl)methoxy)bicyclo[3.2.1]octan-8-yl)-5-(1H-tetrazol-5-yl)pyridin-2-amine]
23 | 25 to 500 nM | FC(F)(F)Oc1ccccc1-c1noc(C2CC2)c1COC1CC2CCC(C1)C2Nc1nc2ccc(C(F)(F)F)cc2s1 (centres unmarked) [Example 8-6]
24 | > 500 nM | FC(F)(F)Oc1ccccc1-c1noc(C2CC2)c1COC1CC2CCC(C1)C2Nc1ncc(-c2ccccc2)cn1 [Example 8-7, N-((1R,3r,5S,8s)-3-((5-cyclopropyl-3-(2-(trifluoromethoxy)phenyl)isoxazol-4-yl)methoxy)bicyclo[3.2.1]octan-8-yl)-5-phenylpyrimidin-2-amine]
25 | > 500 nM | FC(F)(F)Oc1ccccc1-c1noc(C2CC2)c1COC1CC2CCC(C1)C2Nc1nccc(-c2ccccc2)n1 (centres unmarked) [Example 8-8]
26 | < 25 nM | O=C(O)c1ccc2c(S(=O)(=O)NC3C4CCC3CC(OCc3c(-c5ccccc5OC(F)(F)F)noc3C3CC3)C4)cccc2c1 [Example 9, 5-(N-((1R,3r,5S,8s)-3-((5-cyclopropyl-3-(2-(trifluoromethoxy)phenyl)isoxazol-4-yl)methoxy)bicyclo[3.2.1]octan-8-yl)sulfamoyl)-2-naphthoic acid]
27 | < 25 nM | COC(=O)c1ccc(S(=O)(=O)NC2C3CCC2CC(OCc2c(-c4ccccc4OC(F)(F)F)noc2C2CC2)C3)c2ccccc12 (centres unmarked) [Example 9-2]
28 | 25 to 500 nM | O=C(O)c1ccc(S(=O)(=O)NC2C3CCC2CC(OCc2c(-c4ccccc4OC(F)(F)F)noc2C2CC2)C3)c2ccccc12 (centres unmarked) [Example 9-3]
29 | 25 to 500 nM | COC(=O)c1cccc2c(S(=O)(=O)NC3C4CCC3CC(OCc3c(-c5ccccc5OC(F)(F)F)noc3C3CC3)C4)cccc12 (centres unmarked) [Example 9-4]
30 | < 25 nM | O=C(O)c1cccc2c(S(=O)(=O)NC3C4CCC3CC(OCc3c(-c5ccccc5OC(F)(F)F)noc3C3CC3)C4)cccc12 (centres unmarked) [Example 9-5]
31 | < 25 nM | COC(=O)c1ccc2cc(S(=O)(=O)NC3C4CCC3CC(OCc3c(-c5ccccc5OC(F)(F)F)noc3C3CC3)C4)ccc2c1 (centres unmarked) [Example 9-6]
32 | 25 to 500 nM | O=C(O)c1ccc2cc(S(=O)(=O)NC3C4CCC3CC(OCc3c(-c5ccccc5OC(F)(F)F)noc3C3CC3)C4)ccc2c1 (centres unmarked) [Example 9-7]
33 | > 500 nM | O=C(O)c1cccc(S(=O)(=O)NC2C3CCC2CC(OCc2c(-c4ccccc4OC(F)(F)F)noc2C2CC2)C3)c1 (centres unmarked) [Example 9-8]
34 | > 500 nM | O=C(O)c1ccccc1S(=O)(=O)NC1C2CCC1CC(OCc1c(-c3ccccc3OC(F)(F)F)noc1C1CC1)C2 (centres unmarked) [Example 9-9]
35 | 25 to 500 nM | O=S(=O)(NC1C2CCC1CC(OCc1c(-c3ccccc3OC(F)(F)F)noc1C1CC1)C2)c1ccccc1 (centres unmarked) [Example 9-10]
